Experiments:
DU-145 [1] = assay: Cytotoxicity against human DU-145 cells assessed as reduction in cell viability measured after 72 hrs by SRB assay; format: functional, cell-based; details: DU-145, 72 h
LNCaP = assay: Cytotoxicity against human LNCaP cells assessed as reduction in cell viability measured after 72 hrs by SRB assay; format: functional, cell-based
PC-3 = assay: Cytotoxicity against human PC-3 cells assessed as reduction in cell viability measured after 72 hrs by SRB assay; format: functional, cell-based; details: PC-3, 72 h
HT-29 [2] = assay: Cytotoxicity against human HT-29 cells assessed as reduction in cell viability measured after 72 hrs by SRB assay; format: functional, cell-based; details: HT-29, 72 h
NCI-H460 [3] = assay: Cytotoxicity against human NCI-H460 cells assessed as reduction in cell viability measured after 72 hrs by SRB assay; format: functional, cell-based; details: NCI-H460, 72 h
HCT-116 [4] = assay: Cytotoxicity against human HCT-116 cells assessed as reduction in cell viability measured after 72 hrs by SRB assay; format: functional, cell-based; details: HCT-116, 72 h
UMUC3 [5] = assay: Cytotoxicity against human UMUC3 cells assessed as reduction in cell viability measured after 72 hrs by SRB assay; format: functional, cell-based; details: UMUC3, 72 h
MCF7 = assay: Cytotoxicity against human MCF7 cells assessed as reduction in cell viability measured after 72 hrs by SRB assay; format: functional, cell-based; details: MCF7, 72 h
MDA-MB-231 = assay: Cytotoxicity against human MDA-MB-231 cells assessed as reduction in cell viability measured after 72 hrs by SRB assay; format: functional, cell-based; details: MDA-MB-231, 72 h
PANC-1 [6] = assay: Cytotoxicity against human PANC-1 cells assessed as reduction in cell viability measured after 72 hrs by SRB assay; format: functional, cell-based; details: PANC-1, 72 h
MIA PaCa-2 [7] = assay: Cytotoxicity against human MIA PaCa-2 cells assessed as reduction in cell viability measured after 72 hrs by SRB assay; format: functional, cell-based; details: MIA PaCa-2, 72 h
ASPC1 = assay: Cytotoxicity against human ASPC1 cells assessed as reduction in cell viability measured after 72 hrs by SRB assay; format: functional, cell-based; details: ASPC1, 72 h
W256 [8] = assay: Antitumour activity against Walker 256 adenocarcinoma cells implanted in Wistar rat assessed as increase in animal survival rate by measuring T/C ratio at 4 mg/kg, ip qd for 3 days administered on day 3,4,5 after tumor cell transplantation; format: functional; details: time 3 day
HT-29 [9] = assay: Antitumour activity against human HT-29 cells xenografted in Crl:Nu-Foxnl nu mouse assessed as inhibition of tumour growth at total effective dose of 24 mg/kg, ip measured on day 21; format: functional; details: HT-29, ip, 504 h, time 21 day, read-out: TGI
HT-29 [10] = assay: Antitumour activity against human HT-29 cells xenografted in Crl:Nu-Foxnl nu mouse assessed as inhibition of tumour growth at total effective dose of 24 mg/kg, iv measured on day 21; format: functional; details: HT-29, iv, 504 h, time 21 day, read-out: TGI
NCI-H460 [11] = assay: Antitumour activity against human NCI-H460 cells xenografted in Crl:Nu-Foxnl nu mouse assessed as inhibition of tumour growth at total effective dose of 30 mg/kg, iv measured on day 14; format: functional; details: 336 h, time 14 day, read-out: TGI
Quadruplex DNA [12] = assay: Stabilization of 5'-FAM/3'-TAMRA labeled c-Myc promoter G4 quadruplex DNA FPu18 (unknown origin) assessed as change in melting temperature at 10 microM measured after 15 mins by FRET assay; format: nucleic-acid assay
Quadruplex DNA [13] = assay: Stabilization of 5'-FAM/3'-TAMRA labeled telomeric G4 quadruplex DNA F21T (unknown origin) assessed as change in melting temperature at 10 microM measured after 15 mins by FRET assay; format: nucleic-acid assay
Quadruplex DNA [14] = assay: Stabilization of 5'-FAM/3'-TAMRA labeled K-Ras G4 quadruplex DNA (unknown origin) assessed as change in melting temperature at 10 microM measured after 15 mins by FRET assay; format: nucleic-acid assay
[15] = Stabilization of ds 5'-FAM-d(TATAGCTATA-HEG-TATAGCTATA)-TAMRA-3' (unknown origin) assessed as change in melting temperature at 10 microM measured after 15 mins by FRET assay; details: Homo sapiens
W256 [16] = assay: Antitumour activity against Walker 256 adenocarcinoma cells implanted in Wistar rat assessed as increase in animal survival rate by measuring T/C ratio at 5 mg/kg, ip qd for 3 days administered on day 3,4,5 after tumor cell transplantation; format: functional; details: time 3 day
W256 [17] = assay: Antitumour activity against Walker 256 adenocarcinoma cells implanted in Wistar rat assessed as increase in animal survival rate by measuring T/C ratio at 1.25 mg/kg, ip qd for 3 days administered on day 3,4,5 after tumor cell transplantation; format: functional; details: time 3 day
DU-145 [18] = assay: Antitumour activity against human DU-145 cells xenografted in Crl:Nu-Foxnl nu mouse assessed as inhibition of tumour growth at total effective dose of 40 mg/kg, ip measured on day 35; format: functional; details: DU-145, ip, 840 h, time 35 day, read-out: TGI
PANC-1 [19] = assay: Antitumour activity against human PANC-1 cells xenografted in Crl:Nu-Foxnl nu mouse assessed as inhibition of tumour growth at total effective dose of 16 mg/kg, iv measured on day 37; format: functional; details: PANC-1, iv, 888 h, time 37 day, read-out: TGI
UMUC3 [20] = assay: Antitumour activity against human UMUC3 cells xenografted in Crl:Nu-Foxnl nu mouse assessed as inhibition of tumour growth at total effective dose of 14 mg/kg, iv measured on day 23; format: functional; details: 552 h, time 23 day, read-out: TGI
W256 [21] = assay: Antitumour activity against Walker 256 adenocarcinoma cells implanted in Wistar rat assessed as increase in animal survival rate by measuring T/C ratio at 1 mg/kg, ip qd for 3 days administered on day 3,4,5 after tumor cell transplantation; format: functional; details: time 3 day
DU-145 [22] = assay: Antitumour activity against human DU-145 cells xenografted in Crl:Nu-Foxnl nu mouse assessed as inhibition of tumour growth at total effective dose of 6 mg/kg, ip measured on day 35; format: functional; details: DU-145, ip, 840 h, time 35 day, read-out: TGI
HCT-116 [23] = assay: Antitumour activity against human HCT-116 cells xenografted in Crl:Nu-Foxnl nu mouse assessed as inhibition of tumour growth at total effective dose of 5 mg/kg, ip measured on day 16; format: functional; details: HCT-116, ip, 384 h, time 16 day, read-out: TGI
MIA PaCa-2 [24] = assay: Antitumour activity against human MIA PaCa-2 cells xenografted in Crl:Nu-Foxnl nu mouse assessed as inhibition of tumour growth at total effective dose of 32 mg/kg, iv measured on day 26; format: functional; details: MIA PaCa-2, iv, 624 h, time 26 day, read-out: TGI
DU-145 [25] = assay: Antitumour activity against human DU-145 cells xenografted in Crl:Nu-Foxnl nu mouse assessed as inhibition of tumour growth at total effective dose of 24 mg/kg, ip measured on day 35; format: functional; details: DU-145, ip, 840 h, time 35 day, read-out: TGI

SMILES	IC50 (DU-145 [1])	IC50 (LNCaP)	IC50 (HT-29 [2])	IC50 (NCI-H460 [3])	IC50 (HCT-116 [4])	IC50 (MCF7)	IC50 (MDA-MB-231)	IC50 (PANC-1 [6])	IC50 (MIA PaCa-2 [7])	IC50 (ASPC1)	ΔTm (Quadruplex DNA [12])	ΔTm (Quadruplex DNA [13])	ΔTm (Quadruplex DNA [14])	further results
O=c1c2cc(O)ccc2[nH]c2c([N+](=O)[O-])ccc(NCCCN3CCN(CCCNc4c5ccccc5nc5cccc([N+](=O)[O-])c45)CC3)c12	20 nM	117 nM	38 nM	20 nM	11 nM	61 nM	12 nM	43 nM	12 nM	210 nM	32.6 °C	16 °C	26.6 °C	IC50 (PC-3): 31 nM; IC50 (UMUC3 [5]): 33 nM; T/C (W256 [8]): 300%; inhibition in vivo at 24 mg/kg (HT-29 [9]): 25%; inhibition in vivo at 24 mg/kg (HT-29 [10]): 39%; inhibition in vivo at 30 mg/kg (NCI-H460 [11]): 24%; ΔTm [15]: 3.3 °C
CCc1c2c(nc3ccc(OC(=O)N4CCC(N5CCCCC5)CC4)cc13)-c1cc3c(c(=O)n1C2)COC(=O)[C@]3(O)CC [IRINOTECAN]			9500 nM		9700 nM									
Cc1ccc([N+](=O)[O-])c2c(NCCCNCCNCCCNc3ccc([N+](=O)[O-])c4[nH]c5ccccc5c(=O)c34)c3ccccc3nc12	88 nM							142 nM	110 nM					T/C (W256 [16]): 350%
Cc1ccc([N+](=O)[O-])c2c(NCCNc3ccc(C)c4[nH]c5ccccc5c(=O)c34)c3ccccc3nc12	417 nM		1180 nM	370 nM	1270 nM									T/C (W256 [16]): 750%
Cc1ccc(NCCCNCCCNc2c3ccccc3nc3cccc([N+](=O)[O-])c23)c2c(=O)c3ccccc3[nH]c12	184 nM					228 nM		377 nM	280 nM					T/C (W256 [17]): 300%
Cc1ccc(NCCNCCNc2c3ccccc3nc3cccc([N+](=O)[O-])c23)c2c(=O)c3ccccc3[nH]c12	243 nM	250 nM	138 nM				137 nM	212 nM			28.5 °C	37.7 °C	28.1 °C	T/C (W256 [8]): 350%; inhibition in vivo at 40 mg/kg (DU-145 [18]): 61%; inhibition in vivo at 16 mg/kg (PANC-1 [19]): 75%; inhibition in vivo at 14 mg/kg (UMUC3 [20]): 46%
CN(CCCNc1c2ccccc2nc2cccc([N+](=O)[O-])c12)CCCNc1ccc([N+](=O)[O-])c2[nH]c3ccc(O)cc3c(=O)c12	43 nM	53 nM	22 nM	14 nM	15 nM	74 nM	20 nM	32 nM	24 nM	135 nM	26.3 °C	34 °C	29.7 °C	IC50 (PC-3): 52 nM; IC50 (UMUC3 [5]): 14 nM; T/C (W256 [21]): 350%; inhibition in vivo at 6 mg/kg (DU-145 [22]): 60%; inhibition in vivo at 5 mg/kg (HCT-116 [23]): 32%; inhibition in vivo at 32 mg/kg (MIA PaCa-2 [24]): 30%; inhibition in vivo at 24 mg/kg (DU-145 [25]): 52%
NC(CCN1CCN(CCCNc2ccc3nnn4c5ccc(O)cc5c(=O)c2c34)CC1)c1ccc2nc3ccccc3cc2c1[N+](=O)[O-] (configuration not stated)	17 nM						29 nM	36 nM	17 nM	137 nM	37.5 °C	27.5 °C	36.5 °C	ΔTm [15]: 5.9 °C

— ChEMBL document CHEMBL4765407, “Design, synthesis and high antitumor potential of new unsymmetrical bisacridine derivatives towards human solid tumors, specifically pancreatic cancers and their unique ability to stabilize DNA G-quadruplexes” (Eur J Med Chem, 2020)
